Experimental data reported in the supplement of paper PMC10307832.

Tests used:
Assay in all cases: relative viability (nuclei count vs DMSO), 5 days (fraction); higher = more cells survive
Wnt-C59 + Bortezomib = compound: CC1=NC=CC(=C1)C2=CC=C(C=C2)CC(=O)NC3=CC=C(C=C3)C4=CN=CC=C4 [Wnt-C59] + CC(C)C[C@H](NC(=O)[C@H](Cc1ccccc1)NC(=O)c1cnccn1)B(O)O [Bortezomib] (partner 0.002 µM)
Method in brief: (§1)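 Relative viability is defined as nuclei in treated wells over nuclei in vehicle wells. Duplicate plates were run and medians reported. Lung cancer cell lines in 1536-well plates were dosed by pin tool one day after seeding, with one drug or with a fixed anchor-drug dose plus five library-drug doses (not always all listed) in √10 steps, and nuclei were counted after 5 days.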

Wnt-C59 + Luminespib = compound: CC1=NC=CC(=C1)C2=CC=C(C=C2)CC(=O)NC3=CC=C(C=C3)C4=CN=CC=C4 [Wnt-C59] + CCNC(=O)c1noc(-c2cc(C(C)C)c(O)cc2O)c1-c1ccc(CN2CCOCC2)cc1 [Luminespib] (partner 0.01 µM)
Method in brief: as §1

Lapatinib + Foretinib = compound: CS(=O)(=O)CCNCc1ccc(-c2ccc3ncnc(Nc4ccc(OCc5cccc(F)c5)c(Cl)c4)c3c2)o1 [Lapatinib] + COc1cc2c(Oc3ccc(NC(=O)C4(C(=O)Nc5ccc(F)cc5)CC4)cc3F)ccnc2cc1OCCCN1CCOCC1 [Foretinib] (partner 0.25 µM)
Method in brief: as §1

Wnt-C59 + Lapatinib = compound: CC1=NC=CC(=C1)C2=CC=C(C=C2)CC(=O)NC3=CC=C(C=C3)C4=CN=CC=C4 [Wnt-C59] + CS(=O)(=O)CCNCc1ccc(-c2ccc3ncnc(Nc4ccc(OCc5cccc(F)c5)c(Cl)c4)c3c2)o1 [Lapatinib] (partner 2 µM)
Method in brief: as §1

UMC-11
relative viability (Wnt-C59 + Bortezomib; first compound 0.001 µM): 0.715 | relative viability (Wnt-C59 + Bortezomib; first compound 0.01 µM): 0.616 | relative viability (Wnt-C59 + Bortezomib; first compound 0.03162 µM): 0.75 | relative viability (Wnt-C59 + Bortezomib; first compound 0.1 µM): 0.728 | relative viability (Wnt-C59 + Luminespib; first compound 0.001 µM): 0.932 | relative viability (Wnt-C59 + Luminespib; first compound 0.01 µM): 1.1 | relative viability (Wnt-C59 + Luminespib; first compound 0.03162 µM): 1.19 | relative viability (Wnt-C59 + Luminespib; first compound 0.1 µM): 0.979 | relative viability (Lapatinib + Foretinib; first compound 0.02 µM): 0.951 | relative viability (Lapatinib + Foretinib; first compound 0.06325 µM): 1.01 | relative viability (Lapatinib + Foretinib; first compound 0.2 µM): 0.961 | relative viability (Lapatinib + Foretinib; first compound 0.6325 µM): 0.978 | relative viability (Lapatinib + Foretinib; first compound 2 µM): 0.933 | relative viability (Wnt-C59 + Lapatinib; first compound 0.001 µM): 0.911 | relative viability (Wnt-C59 + Lapatinib; first compound 0.01 µM): 0.851 | relative viability (Wnt-C59 + Lapatinib; first compound 0.03162 µM): 1.03 | relative viability (Wnt-C59 + Lapatinib; first compound 0.1 µM): 0.749
